The values below come from publication PMC12700220, “Synthesis, photochemical and biological evaluation of novel photoswitchable glycomimetic ligands of Pseudomonas aeruginosa LecB” (RSC Advances, 2025).

In test [1] the target is T1, LecB (Pseudomonas aeruginosa, UniProt Q9HYN5). The test can be described thus: (soak, […] Å) and ITC. On the set-up: N-terminal 6xHis-tagged LecB (homotetramer). Format: binding.
The target of test [2] is T1, LecB. Briefly: ITC after […] nm illumination. Format: binding. On the set-up: N-terminal 6xHis-tagged LecB.

T1 sequence (Q9HYN5 entry or part of it): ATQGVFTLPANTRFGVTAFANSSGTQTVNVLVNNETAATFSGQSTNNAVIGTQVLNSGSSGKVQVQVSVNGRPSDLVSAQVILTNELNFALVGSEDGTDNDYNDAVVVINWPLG

A word on the Kd: it is the concentration at which binding is half-saturated. Higher therefore signals a looser complex. As for `C[C@@H]1O[C@H](CNS(=O)(=O)c2ccc(/N=N/c3ccccc3)cc2)[C@@H](O)[C@H](O)[C@@H]1O` [photofucose-2, 4-((E)-phenyldiazenyl)-N-(((2R,3S,4R,5S,6S)-3,4,5-trihydroxy-6-methyltetrahydro-2H-pyran-2-yl)methyl)benzenesulfonamide], at LecB [1], the Kd was found to be 1.82 ± 0.408 µM. Take `C[C@@H]1O[C@H](CNS(=O)(=O)c2ccc(/N=N\c3ccccc3)cc2)[C@@H](O)[C@H](O)[C@@H]1O` (mixture of isomers) [photofucose-2, cis-photofucose-2]: at LecB [2], the affinity, expressed as Kd, was 4.71 ± 2.61 µM.
